Results on four compounds are retold here after patent publication US11999728B2, “Estrogen receptor modulators” (Recurium IP Holdings, LLC, priority 2020, dated 2024).

A short description of data set [1]: Plasma and tumor PK analysis post final dosing in MCF-7 orthotopic model. The class given is in vivo, mouse. As to conditions: MCF-7 orthotopic model mice; for Tumor AUC: tumor samples 2 h, 8 h and 24 h post final dosing; for AUC / Kp: mouse; for AUC: plasma, post final dosing, 0.25-24 h; for Kp: tumor AUC vs plasma AUC, read-out: Tumor/Plasma ratio. As to the method:
Plasma samples were collected with seven time points (0.25 h, 0.5 h, 1 h, 2 h, 4 h, 8 h, and 24 h) post final dosing for PK analysis. Tumor samples were collected with three time points (2 h, 8 h and 24 h) post final dosing for PK analysis.

For data set [2], the system named is MCF-7 Human Breast Cancer Orthotopic Model. As to the kind of experiment: Efficacy Study on MCF-7 Human Breast Cancer Orthotopic Model (tumor growth inhibition). The class given is in vivo, mouse. As to conditions: tumor growth inhibition = (1−(Td−T0)/(Cd−C0))×100%; MCF-7 orthotopic model. How it is done:
Efficacy Study on MCF-7 Human Breast Cancer Orthotopic Model
The MCF-7 tumor cell line were maintained in vitro as monolayer culture in DMEM Medium supplemented with 15% heat inactivated fetal bovine serum at 37° C. in an atmosphere of 5% CO2 in air. The medium were renewed every 2 to 3 days and tumor cells were routinely subcultured at a confluence of 80%-90% by trypsin-EDTA, not to exceed 4-5 passages. The cells growing in an exponential growth phase were harvested and counted for tumor inoculation.
Each mouse was inoculated subcutaneously on the 2nd right mammary fat pad with the single cell suspension of 95% viable tumor cells (1.5×10^7) in 200 μL DMEM Matrigel mixture (1:1 ratio) without serum for the tumor development. The treatments were started when mean tumor size reached 195 mm^3.
The measurement of tumor size was conducted twice a week with a caliper and the tumor volume (mm^3) was estimated using the formula: TV=a×b^2/2 throughout the study, where “a” and “b” was long and short diameters of a tumor, respectively. The TVs were used for calculation of the tumor growth inhibition (TGI, an indicator of antitumor effectiveness) value using the formula: (1−(Td−T0)/(Cd−C0))×100%. Td and Cd are the mean tumor volumes of the treated and control animals, and T0 and C0 are the mean tumor volumes of the treated and control animals at the start of the experiment. The tumor regression was defined as individual tumor volume decrease (terminal TV compares to initial TV). The percent tumor regression was calculated using the formula: (1−(Td/T0))×100%.

Data set [3] deals with MCF7. As to the kind of experiment: Breast Cancer Cell Proliferation Assay (MCF-7), Cell Titer-Glo. Format: cell-based. As to conditions: Homo sapiens, MCF7, 120 h, MCF7 cells, 5 days of compound exposure. The method in brief:
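MCF7 cells in phenol red-free DMEM/F12 with charcoal-stripped FBS exposed 5 days to 10-point dilutions (10–0.000005 μM final), 17β-estradiol as control. Viability by CellTiter-Glo luminescence, background-subtracted and expressed relative to estrogen-only treated cells; day-1 pretreatment wells plated.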
A general note: ATP-based viability assays read luminescence as a measure of living cells.

The nature of data set [4]: Pharmacokinetic Determination (Mouse PK). Format: in vivo, female CD-1 mice. As to conditions: female; for Kp at 2 h: CD-1, PO 10.0 mg/kg, Brain concentration vs plasma concentration at 2 hours post dosing, read-out: B/P ratio; for bioavailability: PO 10.0 mg/kg vs IV 3.0 mg/kg. As to the method: Pharmacokinetic Determination
Grouping female CD-1 mice weighing 20-30 g randomly to three groups; one group was administered with test compound at a dose of 3.0 mg/kg by intravenous injection, the other two groups were administered with test compound at a dose of 10.0 mg/kg by oral. The formulation for IV groups is DMSO/PEG400/30% HP-β-CD (5/20/75) and the formulation for PO groups is 25% HP-β-CD in 25 mM citrate buffer (pH3.0). After administering, blood samples of intravenous injection group were collected at time points of predose, 0.0833, 0.25, 0.5, 1, 2, 4, 8, 12 and 24 h; blood samples of oral group were collected at time points of predose, 0.25, 0.5, 1, 2, 4, 8, 12, and 24 h. Both blood samples and brain samples were collected at 2 hours post dosing for the second PO group. Standard curve was plotted based on concentrations of the samples in a suitable range, the concentrations of test compounds in plasma samples and brain samples were determined by using LC-MS/MS. Pharmacokinetic parameters were calculated according to drug concentration-time curve using a noncompartmental method by WinNonLin (Phoenix™, version 6.1) or other similar software.

In general, AUC refers to the area under the concentration-time curve, a measure of exposure. Low readings indicate less exposure, high ones more exposure. What is called IC50 is the point on the concentration scale where inhibition reaches its midpoint. Read a high IC50 as weaker potency in that assay. By AUC(0-t) is commonly meant exposure summed from dosing to a finite time, without extrapolation to infinity. Low values mean low exposure, high ones high exposure. As usually defined, the clearance is a measure of how efficiently the substance is removed, as volume per time. For orientation: bioavailability means dose-corrected exposure relative to a reference, in per cent. High values mean good availability, low ones poor availability. Broadly, the Cmax is the highest concentration seen after dosing. For orientation: Tmax means the time at which the peak concentration occurs. A word on the half-life: it is the time needed for the level to fall by half in the phase considered.

In the case of `C[C@@H]1Cc2c([nH]c3ccccc23)[C@@H](c2ccc(N[C@H]3CCN(CCCF)C3)cc2)N1C12CC(C1)C2` [Compound 42, (S)—N-(4-((1R,3R)-2-(bicyclo[1.1.1]pentan-1-yl)-3-methyl-2,3,4,9-tetrahydro-1H-pyrido[3,4-b]indol-1-yl)phenyl)-1-(3-fluoropropyl)pyrrolidin-3-amine], in data set [1], the “Tumor AUC” value came to 296719 ng·h/mL, the AUC was found to be 5310 ng·h/mL and the Kp was 55.9. For the same compound, the TGI in data set [2] is 106%. This compound came in with an IC50 in data set [3] of at most 25 nM. Also, in data set [4], the Kp at 2 h was 29.4. In data set [4] (CD-1, plasma, IV, 3.0 mg/kg), the AUC(0-t) stood at 1.51 µM·h and the clearance stood at 40 mL/min/kg. The bioavailability in data set [4] (CD-1, plasma) is 55.4%. Further, in data set [4] (CD-1, plasma, PO, 10.0 mg/kg), the AUC(0-t) is 2.79 µM·h, the Cmax came to 220 nM and the Tmax stood at 1 h.
Consider `CCCN1CC(Nc2ccc([C@@H]3c4[nH]c5ccccc5c4C[C@@H](C)N3C34CC(C3)C4)cc2)C1` [Compound 31, N-(4-((1R,3R)-2-(bicyclo[1.1.1]pentan-1-yl)-3-methyl-2,3,4,9-tetrahydro-1H-pyrido[3,4-b]indol-1-yl)phenyl)-1-propylazetidin-3-amine], for which, in data set [1], the “Tumor AUC” value came out at 360399 ng·h/mL, the AUC came out at 6780 ng·h/mL and the Kp was determined as 53.1. Moreover, the TGI in data set [2] is 106%. Further, the IC50 in data set [3] was at most 25 nM. Moreover, the Kp at 2 h in data set [4] is 12. The same compound came in with an AUC(0-t) in data set [4] (CD-1, plasma, IV, 3.0 mg/kg) of 1.03 µM·h. In data set [4] (CD-1, plasma), this compound showed a bioavailability of 87.7%. Moreover, in data set [4] (CD-1, plasma, PO, 10.0 mg/kg), the AUC(0-t) stood at 3 µM·h, the Cmax came out at 240 nM and the Tmax was 2 h.
With `C[C@@H]1Cc2c([nH]c3ccccc23)[C@@H](c2c(F)cc(NC3CN(CCCF)C3)cc2F)N1CC(F)(F)CO` [GDC9545, reference compound], in data set [1], the “Tumor AUC” value was 183743 ng·h/mL, the AUC came out at 10500 ng·h/mL and the Kp was 17.5. In addition, the TGI in data set [2] stood at 130%. In data set [3], this compound returned an IC50 of at most 25 nM. The Kp at 2 h in data set [4] turned out to be 0.17. In addition, in data set [4] (CD-1, plasma, PO, 10.0 mg/kg), the AUC(0-t) was 13.3 µM·h, the Cmax stood at 960 nM, the Tmax is 4 h and the half-life is 8.66 h.
`C[C@@H]1Cc2c([nH]c3ccccc23)[C@@H](c2cnc(NC3CN(CCCF)C3)cn2)N1C12CC(C1)C2` [Compound 16, 5-((1S,3R)-2-(bicyclo[1.1.1]pentan-1-yl)-3-methyl-2,3,4,9-tetrahydro-1H-pyrido[3,4-b]indol-1-yl)-N-(1-(3-fluoropropyl)azetidin-3-yl)pyrazin-2-amine]: the IC50 in data set [3] was at most 25 nM. In data set [4] (CD-1, plasma, IV, 3.0 mg/kg), this compound gave an AUC(0-t) of 2.08 µM·h, a clearance of 53.5 mL/min/kg and a half-life of 3.85 h. The Vd in data set [4] (CD-1, plasma, IV, 3.0 mg/kg, read-out: Vdss) amounted to 11.8 L/kg. The compound also had a bioavailability in data set [4] (CD-1, plasma) of 39.5%. In data set [4] (CD-1, plasma, PO, 10.0 mg/kg), the AUC(0-t) was determined as 2.73 µM·h, the Cmax is 590 nM, the Tmax amounted to 1 h and the half-life is 3.24 h.
